Data published in patent US20110039721A1, “METHOD FOR PREDICTION ABOUT CARCINOGENICITY OF SUBSTANCE IN RODENT” (Chemicals Evaluation and Research Institute, priority 2007, published 2011).

Experiments:
[1] = tested on: mRNA expressed from the genes (A) to (D) in rat liver; experiment: Behavior of genes (mRNA expression level, oligo-DNA microarray) in rat liver after 28-day oral administration; assay type: in vivo
Outline: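 Liver mRNA levels were compared with matched vehicle groups, with a shift of at least 1.5-fold up or down deemed significant unless its direction disagreed with other carcinogens. Test substances were dosed orally by gavage daily for 28 days to 5-week-old male F344 rats, four per group.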

liver = conditions: in vivo; cited from earlier work
rodent = conditions: in vivo; cited from earlier work

Nc1ccc(N=Nc2ccccc2)cc1 [TS075, 4-Aminoazobenzene]
+: Behavior of gene caused by administration of chemical substance ([1]; Gene No. 893, Rn.164817, group (C)) | Behavior of gene caused by administration of chemical substance ([1]; Gene No. 1163, Rn.11766, group (C)) | Behavior of gene caused by administration of chemical substance ([1]; Gene No. 1993, Rn.18728, group (C)) | Behavior of gene caused by administration of chemical substance ([1]; Gene No. 2203, Rn.21240, group (B)) | Behavior of gene caused by administration of chemical substance ([1]; Gene No. 2546, Rn.24561, group (C)) | Behavior of gene caused by administration of chemical substance ([1]; Gene No. 3929, Rn.4620, group (C)) | Behavior of gene caused by administration of chemical substance ([1]; Gene No. 4095, Rn.119024, group (C)) | Behavior of gene caused by administration of chemical substance ([1]; Gene No. 4973, Rn.118529, group (C))
−: Behavior of gene caused by administration of chemical substance ([1]; Gene No. 154, Rn.185941, group (C)) | Behavior of gene caused by administration of chemical substance ([1]; Gene No. 533, Rn.106184, group (C)) | Behavior of gene caused by administration of chemical substance ([1]; Gene No. 725, Rn.108075, group (C)) | Behavior of gene caused by administration of chemical substance ([1]; Gene No. 813, Rn.201760, group (C)) | Behavior of gene caused by administration of chemical substance ([1]; Gene No. 1119, Rn.9757, group (C)) | Behavior of gene caused by administration of chemical substance ([1]; Gene No. 1131, Rn.144946, group (C)) | Behavior of gene caused by administration of chemical substance ([1]; Gene No. 1334, Rn.120914, group (C)) | Behavior of gene caused by administration of chemical substance ([1]; Gene No. 1494, Rn.1430, group (B)) | Behavior of gene caused by administration of chemical substance ([1]; Gene No. 1562, Rn.14744, group (C)) | Behavior of gene caused by administration of chemical substance ([1]; Gene No. 1741, Rn.1647, group (C)) | Behavior of gene caused by administration of chemical substance ([1]; Gene No. 2026, Rn.167075, group (A)) | Behavior of gene caused by administration of chemical substance ([1]; Gene No. 2045, Rn.19329, group (B)) | Behavior of gene caused by administration of chemical substance ([1]; Gene No. 2494, Rn.23969, group (C)) | Behavior of gene caused by administration of chemical substance ([1]; Gene No. 3776, Rn.43232, group (C)) | Behavior of gene caused by administration of chemical substance ([1]; Gene No. 4218, Rn.167075, group (A)) | Behavior of gene caused by administration of chemical substance ([1]; Gene No. 4846, Rn.144554, group (A)) | Behavior of gene caused by administration of chemical substance ([1]; Gene No. 5600, Rn.9836, group (A)) | Behavior of gene caused by administration of chemical substance ([1]; Gene No. 5634, Rn.9862, group (C)) | Behavior of gene caused by administration of chemical substance ([1]; Gene No. 5726, Rn.9939, group (D)) | Behavior of gene caused by administration of chemical substance ([1]; Gene No. 5878, Rn.143213, group (C)) | Behavior of gene caused by administration of chemical substance ([1]; Gene No. 6026, Rn.167685, group (C)) | Behavior of gene caused by administration of chemical substance ([1]; Gene No. 6182, Rn.5834, group (A)) | Behavior of gene caused by administration of chemical substance ([1]; Gene No. 6303, Rn.123063, group (C)) | Behavior of gene caused by administration of chemical substance ([1]; Gene No. 6620, Rn.120914, group (C)) | Behavior of gene caused by administration of chemical substance ([1]; Gene No. 6742, Rn.9779, group (C))
Cr+: Liver carcinogenicity (liver)
C+: Carcinogenicity (rodent)
